Read-outs that look alike come from different tables or passages of the source.
Legend:
[1] = biological target: NDM-1 (Klebsiella pneumoniae, UniProt C7C422); assay: biochemical; format: biochemical
[2] = biological target: IMP-1 (Serratia marcescens, UniProt P52699); assay: biochemical; format: biochemical; conditions: read-out: IMP-1 IC50
[3] = biological target: VIM-1 (Pseudomonas aeruginosa (strain ATCC 15692 / DSM 22644 / CIP 104116 / JCM 14847 / LMG 12228 / 1C / PRS 101 / PAO1), UniProt A0A0F7KYQ8); assay: Enzyme activity: determination of IC50, fluorescence assay with CCF2-FA substrate (VIM-1); format: biochemical
[4] = tested on: Escherichia coli expressing NDM-1 (CLB30016); assay: Antibiotic potentiation activity: synergistic concentration (MITC95) with imipenem, OD600 growth; format: cell-based; conditions: for Escherichia coli expressing NDM-1 (CLB 30016) MITC95: concentration giving 95% inhibition of bacterial growth
Outline: (§1)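 Bacteria were grown overnight on agar at 35 °C, diluted 1:100 from saline into 1.1× CAMHB, then given compound with or without imipenem (4 μg/ml in assay, optionally 1 μg/ml). Endpoint: absorbance at 22–24 h.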

[5] = tested on: Klebsiella pneumoniae expressing VIM-1 (IHMA599644); assay: as above; format: cell-based; conditions: for Klebsiella pneumoniae expressing VIM-1 (IHMA 599644) MITC95: concentration giving 95% inhibition of bacterial growth
Outline: as §1

[6] = tested on: Serratia marcescens expressing IMP-1 (CL5741); assay: as above; format: cell-based; conditions: for Serratia marcescens expressing IMP-1 (CL5741) MITC95: concentration giving 95% inhibition of bacterial growth
Outline: as §1

[7] = fluorescence assay with CCF2-FA substrate, read-out: NDM-1 IC50
[8] = fluorescence assay with CCF2-FA substrate
[9] = VIM-1 IC50, fluorescence assay with CCF2-FA substrate
[10] = CLB30016 (NDM-1), 95% inhibition of bacterial growth
[11] = IHMA599644 (VIM-1), 95% inhibition of bacterial growth
[12] = CL5741 (IMP-1), 95% inhibition of bacterial growth
[13] = fluorescence assay with CCF2-FA substrate, read-out: VIM-1 IC50
[14] = NDM-1 enzyme, CCF2-FA fluorescence assay, read-out: NDM-1 IC50
[15] = IMP-1 enzyme, CCF2-FA fluorescence assay
[16] = VIM-1 enzyme, CCF2-FA fluorescence assay, read-out: VIM-1 IC50
[17] = Escherichia coli expressing NDM-1 (CLB30016), 95% growth inhibition
[18] = Klebsiella pneumoniae expressing VIM-1 (IHMA599644), 95% growth inhibition
[19] = Serratia marcescens expressing IMP-1 (CL5741), 95% growth inhibition
[20] = NDM-1 enzyme, CCF2-FA substrate, read-out: NDM-1 IC50
[21] = IMP-1 enzyme, CCF2-FA substrate
[22] = VIM-1 enzyme, CCF2-FA substrate, read-out: VIM-1 IC50
[23] = (CLB30016, NDM-1), 95% growth inhibition
[24] = Klebsiella pneumoniae IHMA599644 (VIM-1), 95% growth inhibition
[25] = Serratia marcescens CL5741 (IMP-1), 95% growth inhibition

Chain of NDM-1 (C7C422 whole entry, looked up, species assumed): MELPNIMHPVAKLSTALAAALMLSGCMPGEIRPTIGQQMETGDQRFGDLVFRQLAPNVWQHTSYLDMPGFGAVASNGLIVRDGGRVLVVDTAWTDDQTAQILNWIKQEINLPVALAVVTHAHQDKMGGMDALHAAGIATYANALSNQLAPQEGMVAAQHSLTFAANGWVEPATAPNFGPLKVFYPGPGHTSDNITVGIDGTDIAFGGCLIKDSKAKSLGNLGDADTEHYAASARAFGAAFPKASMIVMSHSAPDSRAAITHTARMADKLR
Chain of IMP-1 (P52699 whole entry, looked up): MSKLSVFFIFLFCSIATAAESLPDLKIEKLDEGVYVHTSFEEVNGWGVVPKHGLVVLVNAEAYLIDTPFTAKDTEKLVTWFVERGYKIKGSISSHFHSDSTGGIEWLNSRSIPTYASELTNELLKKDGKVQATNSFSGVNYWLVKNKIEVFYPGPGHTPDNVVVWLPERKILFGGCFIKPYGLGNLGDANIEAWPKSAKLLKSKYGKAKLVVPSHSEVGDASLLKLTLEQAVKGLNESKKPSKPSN

| Structure (SMILES) | IC50 [1, 14] | IC50 [2, 15] | IC50 [3, 16] | Escherichia coli MITC95 [4, 17] | Klebsiella pneumoniae MITC95 [5, 18] | Serratia marcescens MITC95 [6, 19] | IC50 [2, 21] | IC50 [3, 22] | Escherichia coli MITC95 [4, 23] | Klebsiella pneumoniae MITC95 [5, 24] | Serratia marcescens MITC95 [6, 25] | further results |
| --- | --- | --- | --- | --- | --- | --- | --- | --- | --- | --- | --- | --- |
| N=C(N)N1CCC2(CCC(c3ccc(C(F)(F)F)c(S(N)(=O)=O)c3-c3nnn[nH]3)CC2)CC1 [Example 826, 9-[3-sulfamoyl-2-(1H-tetrazol-5-yl)-4-(trifluoromethyl)phenyl]-3-azaspiro[5.5]undecane-3-carboxamidine] | – | – | – | – | – | – | – | – | – | – | – | IC50 [1, 7]: 0.491 nM; IC50 [2, 8]: 1.45 nM; IC50 [3, 9]: 1.36 nM; Escherichia coli MITC95 [4, 10]: 1.563 µM; Klebsiella pneumoniae MITC95 [5, 11]: 25 µM; Serratia marcescens MITC95 [6, 12]: 3.125 µM |
| NS(=O)(=O)c1c(C(F)(F)F)ccc(-c2ccc(C3CCN(CCC4CCNCC4)CC3)cc2)c1-c1nnn[nH]1 [Example 793, 4′-[1-(2-piperidin-4-ylethyl)piperidin-4-yl]-2-(1H-tetrazol-5-yl)-4-(trifluoromethyl)biphenyl-3-sulfonamide] | – | – | – | – | – | – | – | – | – | – | – | IC50 [1, 7]: 7 nM; IC50 [2, 8]: 1.02 nM; IC50 [3, 13]: 4.66 nM; Escherichia coli MITC95 [4, 10]: 1.563 µM; Klebsiella pneumoniae MITC95 [5, 11]: 25 µM; Serratia marcescens MITC95 [6, 12]: 3.125 µM |
| N=CN1CCC(N)(c2ccc(-c3ccc(C(F)(F)F)c(S(N)(=O)=O)c3-c3nn[nH]n3)cc2)CC1 [Example 437, 4′-(4-amino-1-(iminomethyl)piperidin-4-yl)-2-(2H-tetrazol-5-yl)-4-(trifluoromethyl)-[1,1′-biphenyl]-3-sulfonamide] | 7.95 nM | 7.82 nM | 8 nM | 0.3906 µM | 3.125 µM | 0.3906 µM | – | – | – | – | – | – |
| NS(=O)(=O)c1cccc(C2CCn3cncc3C2)c1-c1nn[nH]n1 (stereo not drawn) [Example 178, 3-(5,6,7,8-tetrahydroimidazo[1,5-a]pyridin-7-yl)-2-(2H-tetrazol-5-yl)benzenesulfonamide] | – | – | – | – | – | – | – | – | – | – | – | IC50 [1, 7]: 28.4 nM; IC50 [2, 8]: 1020 nM; IC50 [3, 9]: 65.5 nM; Escherichia coli expressing NDM-1 (CLB 30016) MITC95 [4]: 0.25 µM; Klebsiella pneumoniae expressing VIM-1 (IHMA 599644) MITC95 [5]: 9.375 µM; Serratia marcescens expressing IMP-1 (CL5741) MITC95 [6]: 12.5 µM |
| NS(=O)(=O)c1c(CCC2CNC2)ccc(-c2ccc(C3CCNCC3)cc2)c1-c1nn[nH]n1 [Example 466, 4-(2-(azetidin-3-yl)ethyl)-4′-(piperidin-4-yl)-2-(2H-tetrazol-5-yl)-[1,1′-biphenyl]-3-sulfonamide] | 10.5 nM | 54.6 nM | 3.72 nM | 0.7813 µM | 1.563 µM | 1.563 µM | – | – | – | – | – | – |
| NS(=O)(=O)c1cccc(-c2ccc3nc(C(=O)O)ccc3c2)c1-c1nn[nH]n1 [Example 287, 6-(3-sulfamoyl-2-(2H-tetrazol-5-yl)phenyl)quinoline-2-carboxylic acid] | 0.734 nM | 159 nM | 34 nM | 9.375 µM | 37.5 µM | 18.75 µM | – | – | – | – | – | – |
| N=C(NCCCN)c1ccc(-c2ccc(C(F)(F)F)c(S(N)(=O)=O)c2-c2nn[nH]n2)cc1 [Example 565, N-(3-aminopropyl)-3′-sulfamoyl-2′-(2H-tetrazol-5-yl)-4′-(trifluoromethyl)biphenyl-4-carboximidamide] | – | – | – | – | – | – | 200 nM | 11.3 nM | 12.5 µM | 12.5 µM | 25 µM | IC50 [1, 20]: 187 nM |
| NS(=O)(=O)c1nccc(N2CCCC(Cc3cccnc3)C2)c1-c1nnn[nH]1 (stereo not drawn) [Example 243, 4-[3-(pyridin-3-ylmethyl)piperidin-1-yl]-3-(1H-tetrazol-5-yl)pyridine-2-sulfonamide] | 67.1 nM | 1510 nM | 204 nM | 18.75 µM | >200 µM | 100 µM | – | – | – | – | – | – |
| N=C(N)NC[C@H]1CC[C@H](c2ccc(C(F)(F)F)c(S(N)(=O)=O)c2-c2nnn[nH]2)CC1 [Example 503, 3-(trans 4-(guanidinomethyl)cyclohexyl)-2-(1H-tetrazol-5-yl)-6-(trifluoromethyl)benzenesulfonamide] | – | – | – | – | – | – | 4.2 nM | 0.183 nM | 0.1953 µM | 0.7813 µM | 0.1953 µM | IC50 [1]: 1.14 nM |
| NCc1ncc(CCc2ccc(C(F)(F)F)c(S(N)(=O)=O)c2-c2nn[nH]n2)cc1N [Example 513, 3-(2-(5-Amino-6-(aminomethyl)pyridin-3-yl)ethyl)-2-(2H-tetrazol-5-yl)-6-(trifluoromethyl)benzenesulfonamide] | – | – | – | – | – | – | 3.61 nM | 1.18 nM | 12.5 µM | 9.375 µM | 9.375 µM | IC50 [1, 20]: 9.35 nM |
| Nc1ccc(-c2ccc(CCC3CCNCC3)c(S(N)(=O)=O)c2-c2nnn[nH]2)cn1 [Example 581, 3-(6-aminopyridin-3-yl)-6-(2-(piperidin-4-yl)ethyl)-2-(1H-tetrazol-5-yl)benzenesulfonamide] | – | – | – | – | – | – | 268 nM | 36.8 nM | 0.3906 µM | 12.5 µM | 6.25 µM | IC50 [1, 20]: 8.23 nM |
| CN(CCC(=O)O)Cc1ccc(-c2cccc(S(N)(=O)=O)c2-c2nnn[nH]2)cc1 [Example 361, N-methyl-N-{[3′-sulfamoyl-2′-(1H-tetrazol-5-yl)biphenyl-4-yl]methyl}-beta-alanine] | 12.9 nM | 139 nM | 271 nM | 2.344 µM | 25 µM | 3.125 µM | – | – | – | – | – | – |
| Cc1ccc(C(F)(F)F)c(S(N)(=O)=O)c1-c1nnn[nH]1 [Example 487, 3-methyl-2-(1H-tetrazol-5-yl)-6-(trifluoromethyl)benzenesulfonamide] | 102 nM | 56.4 nM | 70.4 nM | 1.563 µM | 25 µM | 1.563 µM | – | – | – | – | – | – |
| CN1CC(NCc2ccc(-c3cccc(S(N)(=O)=O)c3-c3nnn[nH]3)cc2)C1 [Example 331, 4′-(((1-methylazetidin-3-yl)amino)methyl)-2-(1H-tetrazol-5-yl)-[1,1′-biphenyl]-3-sulfonamide] | 30.6 nM | 392 nM | 1190 nM | 1.172 µM | 150 µM | 6.25 µM | – | – | – | – | – | – |
| NS(=O)(=O)c1c(C(F)(F)F)ccc(-c2ccc(C3CCN(CC4CCNCC4)CC3)cc2)c1-c1nnn[nH]1 [Example 668, 4′-[1-(piperidin-4-ylmethyl)piperidin-4-yl]-2-(1H-tetrazol-5-yl)-4-(trifluoromethyl)biphenyl-3-sulfonamide] | – | – | – | – | – | – | 2.8 nM | 7.04 nM | 1.563 µM | 50 µM | 3.125 µM | IC50 [1, 20]: 9.32 nM |
| NS(=O)(=O)c1nccc(N2CCCC(c3ccccn3)C2)c1-c1nnn[nH]1 (stereo not drawn) [Example 220, 4-(3-pyridin-2-ylpiperidin-1-yl)-3-(1H-tetrazol-5-yl)pyridine-2-sulfonamide] | – | – | – | – | – | – | – | – | – | – | – | IC50 [1, 7]: 22.8 nM; IC50 [2, 8]: 2390 nM; IC50 [3, 13]: 234 nM; Escherichia coli expressing NDM-1 (CLB 30016) MITC95 [4]: 12.5 µM; Klebsiella pneumoniae expressing VIM-1 (IHMA 599644) MITC95 [5]: >200 µM; Serratia marcescens expressing IMP-1 (CL5741) MITC95 [6]: 75 µM |

Reference: US9708336B2, “Metallo-beta-lactamase inhibitors” (priority 2014, dated 2017)
